Laboratory results: US20090005437A1, “Alpha-Ketoglutarates and Their Use as Therapeutic Agents” (priority 2004, published 2009)
pIC50: −log10 of the molar value. Each block holds one molecule with its values, some of them ahead of it.

Assays:
[1] = system: HEK293 cells; experiment: Measurement of intracellular α-ketoglutarate (glutamate dehydrogenase assay); type: cell-based, human; conditions: 1 mM, 5 hours
[2] = system: PHD; experiment: PHD activity in cells co-expressing GFP-ODD fusion protein and HA-pVHL (GFP fluorescence, western blot); type: cell-based, human
[3] = system: HIF1α; experiment: HIF1α levels in HEK293 cells in which HIF1α was induced by DMS (western blot); type: cell-based, human; conditions: HEK293, DMS 24 hours, then ester 3 hours
[4] = system: HIF1α; experiment: HIF1α induction in SDH-inhibited cells transfected with Di3 shRNA (western blot); type: cell-based; conditions: 24 hour treatment
[5] = system: cells under hypoxic conditions; experiment: Cell death of cells grown under hypoxic conditions (0.5% oxygen)
[6] = system: HIF-1α; experiment: HIF-1α levels in cells incubated with DMS under normoxic conditions (western blot); type: cell-based; conditions: 20 mM, 48 hours
[7] = system: PHD (HIFα prolyl hydroxylase); experiment: In vitro PHD activity (hydroxylation of in vitro-translated HA-ODDD by cell extracts, gel shift on SDS-PAGE); type: biochemical, human

SMILES: O=C(O)CCC(=O)C(=O)O [free α-ketoglutaric acid, 2-Oxo-pentanedioic acid]
Change of intracellular α-ketoglutarate above basal levels [1]: no increase

SMILES: [Cl-].[Cl-].[Co+2] [CoCl2]
GFP-ODD levels (western blot) [2]: increase in GFP-ODD levels

SMILES: CCCCCCCCOC(=O)C(=O)CCC(=O)O [octyl-α-ketoglutarate, 2-Oxo-pentanedioic acid 1-octyl ester]
GFP fluorescence in DMS-treated cells [2]: reduced GFP fluorescence
HIF1α protein levels after DMS induction [3]: reversed DMS-induction of HIF1α completely
HIF1α induction observed with Di3 transfection [4]: reversed
Cell death under hypoxic conditions [5]: significant cell death

SMILES: COC(=O)CCC(=O)OC [DMS, dimethyl ester succinic acid]
HIF-1α levels (western blot) [6]: elevated levels of HIF-1α
GFP fluorescence ([2]; 48 hours after treatment with DMS, 10% oxygen): increase in GFP fluorescence
Level of GFP-ODD (western blot) ([2]; DMS alone, 48 hours): rose

pIC50 ([7]; read-out: IC50 for inhibition of PHD activity (HA-ODDD hydroxylation), cell extracts with α-ketoglutarate, Fe2+, ascorbate): 3.30
SMILES: O=C(O)CCC(=O)O [succinate, succinic acid]
PHD activity (appearance of non-hydroxylated HA-ODD) ([7]; HeLa cell extracts, succinate held constant at 1 mM): inhibition of PHD activity
PHD activity in vitro (production of hydroxylated HA-ODDD, mobility on SDS-PAGE) ([7]; cell extracts with α-ketoglutarate, Fe2+, ascorbate, DFO 5 mM, succinate 0.1-5.0 mM): decrease in the production of hydroxylated HA-ODDD

SMILES: O=C(O)CCC(=O)C(=O)OCc1cccc(C(F)(F)F)c1 [TFMB-α-ketoglutarate, 2-Oxopentanedioic acid 1-(3-trifluoromethyl-benzyl)ester]
GFP fluorescence in DMS-treated cells [2]: reduced GFP fluorescence
HIF1α protein levels after DMS induction [3]: substantially reduce the levels of HIF1α protein
HIF1α induction observed with Di3 transfection [4]: reversed
